Laboratory results reported in ChEMBL document CHEMBL2417385, “A new strategy for the synthesis of crucigasterin A, and cytotoxic activity of this compound and its related analogues” (Bioorg Med Chem Lett, 2013).

Legend:
Assay type in all cases: functional, cell-based
A549 = experiment: Cytotoxicity against human A549 cells after 2 days by MTT assay; conditions: A549, 48 h
MCF7 = experiment: Cytotoxicity against human MCF7 cells after 2 days by MTT assay; conditions: MCF7, 48 h
MDA-MB-231 = experiment: Cytotoxicity against human MDA-MB-231 cells after 2 days by MTT assay; conditions: MDA-MB-231, 48 h
HeLa = experiment: Cytotoxicity against human HeLa cells assessed as growth inhibition after 2 days by MTT assay; conditions: 48 h

| SMILES | IC50 (A549) [µM] | IC50 (MCF7) [µM] | IC50 (MDA-MB-231) [µM] | IC50 (HeLa) [µM] |
| --- | --- | --- | --- | --- |
| CCCCCC/C=C\CC/C=C/C[C@H](O)[C@H](C)N | 7.81 | 13.5 | 12.7 | 39.7 |
| C=CCCCC/C=C/C=C/C[C@H](O)[C@H](C)N | 14.7 | > 50 | 8.03 | 5.91 |
| C=CCCCCCC/C=C\C[C@H](O)[C@H](C)N | > 50 | 15.5 | 10.4 | 19.2 |
| COc1cccc2c1C(=O)c1c(O)c3c(c(O)c1C2=O)C[C@@](O)(C(=O)CO)C[C@@H]3O[C@H]1C[C@H](N)[C@H](O)[C@H](C)O1 [DOXORUBICIN] | 0.459 | 13.5 | 0.91 | 0.509 |
